One molecule from patent US4670265A, “Aloe emodin and other anthraquinones and anthraquinone-like compounds from plants virucidal against herpes simplex viruses” (priority 1984, dated 1987) can be followed below.

The subject of the assay is HSV-1 (KOS strain). The assay is described as follows: Plaque Reduction Assay (PRA) for anti-viral activity, HSV-1. The format is cell-based, herpes simplex virus type 1 (KOS strain). As to conditions: product of reduction of Aloe emodin. The procedure: The extract has a direct virucidal effect on HSV under the standardly accepted assay conditions employed. This effect is demonstrable by mixing the test extract directly with HSV and incubating the mixture for 15 minutes at 37° C., then diluting the mixture and assaying for the amount of viable HSV capable of producing plaques in an in vitro cell culture system. A plaque is defined as a visible, localized destruction of cells in culture produced by a single infectious virus particle or plaque forming unit and is the most sensitive assay in virology for quantitating viruses. Depending on the type and concentration of the test extract used, complete inactivation of HSV plaque forming units can be achieved in 15 minutes or less.
Material for testing was obtained from Aloe plants using either whole leaf homogenates, sap or gel. Other materials for testing included dried leaves of Aloe vera and Senna, dried bark of Frangula and Cascara, dried rhizomes of Rhubarb and a commercial preparation of Aloin. All samples were tested for anti-viral activity by a Plaque Reduction Assay (PRA) using monolayer cultures of Vero (African Green Monkey Kidney) cells grown in MEM+5% calf serum. […] After adsorption, the inoculum was removed, a methyl cellulose/MEM overlay medium was added and after three days incubation the number of plaques per dish counted and averaged. […]

Take `O=C1c2ccccc2Cc2ccccc21` [anthrone]: the “anti-viral activity (in words)” value is “loss of anti-viral activity”.
